From US20240218022A1, “ANTI-VISTA MACROCYCLIC PEPTIDES AND COMPOSITIONS” (BRISTOL-MYERS SQUIBB COMPANY, priority 2022, published 2024)
Like-named read-outs stand apart in the source and are kept apart here. One block for each compound: values may come before it. Starred links: 1 amine or outer side, 2 acyl side, 3 side chain; linkers in the order of their positions; H or OH if unused. Positions of bridges follow the written chain, without caps; N, C: chain ends. Non-standard residues stand in square brackets, D forms with d. Residues, ends and D or L forms follow the SMILES beside them. γGlu = O=C(O)[C@H](CCC(=O)[*:2])N[*:1]; 2Nal = N[C@@H](Cc1ccc2ccccc2c1)C(=O)O; βAsp = O=C(O)[C@H](CC(=O)[*:2])N[*:1]; Cit = NC(=O)NCCC[C@H](N)C(=O)O; Ahp(2) = CCCCC[C@H](N)C(=O)O; NMeNle = CCCC[C@H](NC)C(=O)O; Tle = CC(C)(C)[C@H](N)C(=O)O; NHexGly = CCCCCCNCC(=O)O; Nle = CCCC[C@H](N)C(=O)O; Orn = NCCC[C@H](N)C(=O)O; Aun = NCCCCCCCCCCC(=O)O; Aze = O=C(O)[C@@H]1CCN1; Dab = NCC[C@H](N)C(=O)O; AEEA = NCCOCCOCC(=O)O; NBuGly = CCCCNCC(=O)O

Target: T1, mouse VISTA (mVISTA) (Mus musculus, UniProt Q9D659)
T1 construct: expressed in transfected cells; host or cells: Human embryonic kidney 293T cells
T1 sequence (Q9D659 33-308): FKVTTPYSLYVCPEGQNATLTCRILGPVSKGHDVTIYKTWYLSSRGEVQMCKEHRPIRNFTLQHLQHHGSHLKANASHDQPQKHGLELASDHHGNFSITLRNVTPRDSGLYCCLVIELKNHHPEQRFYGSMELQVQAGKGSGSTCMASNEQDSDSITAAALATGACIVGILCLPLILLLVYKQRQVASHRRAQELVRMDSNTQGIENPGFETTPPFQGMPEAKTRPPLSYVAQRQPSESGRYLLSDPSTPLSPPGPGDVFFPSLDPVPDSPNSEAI
Test: Cell-Based Binding High-Content Assay For mVISTA (HC CBA mVISTA)
Summary of the method: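 Competition of compound with a biotinylated peptide (final 2 nM, 30 min at RT) for binding to mVISTA on 293T cells, run under no-wash or wash (1 h compound preincubation then removal) formats. Readout by Alexa 647–streptavidin imaging on a high-content platform; four-parameter logistic fit gave IC50.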

[1] = cell-based binding high-content assay, mVISTA, the 16th table, read-out: HC CBA mVISTA IC50
[2] = cell-based binding high-content assay, mVISTA, the 15th table, read-out: HC CBA mVISTA IC50
[3] = cell-based binding high-content assay, read-out: HC CBA miPrISTA IC50

IC50 [1]: 2.4 nM
SMILES: CCCCC[C@@H]1NC(=O)[C@H](CC(C)C)NC(=O)[C@H](CCCNC(=N)N)NC(=O)[C@H](CC(N)=O)NC(=O)[C@H](CCCC)NC(=O)[C@H](Cc2ccc(O)cc2)NC(=O)CN(CCCC)C(=O)[C@H](CC(=O)O)NC(=O)[C@H](Cc2ccc(O)cc2)NC(=O)[C@H](Cc2ccc3ccccc3c2)NC(=O)CSC[C@@H](C(=O)NCC(=O)O)NC(=O)[C@H](CC(=O)O)NC(=O)[C@H](C(C)C)NC(=O)[C@@H]2CCCN2C1=O [Ex 1270] ({CH2CO}-[2Nal]YD[NBuGly]Y[Nle]NRL[Ahp(2)]PVDCG-OH; thioether N-14)

IC50 [2]: 11.3 nM
SMILES: CCCCCCN1CC(=O)N[C@@H](Cc2ccc(O)cc2)C(=O)N[C@@H](CCCC)C(=O)N[C@@H](CC(=O)O)C(=O)N[C@@H](CCCNC(=N)N)C(=O)N(C)[C@@H](CCCC)C(=O)N[C@@H](CCCCC)C(=O)N2CCC[C@H]2C(=O)N[C@@H](C(C)C)C(=O)N[C@@H](CC(=O)O)C(=O)N[C@H](C(=O)N[C@@H](CO)C(N)=O)CSCC(=O)N[C@@H](Cc2ccc3ccccc3c2)C(=O)N[C@@H](Cc2c[nH]c3ccccc23)C(=O)N[C@@H](CC(=O)O)C1=O [compound 1257] ({CH2CO}-[2Nal]WD[NHexGly]Y[Nle]DR[NMeNle][Ahp(2)]PVDCS-NH2; thioether N-14)

IC50 [2]: 13.1 nM
SMILES: CCCCCCN1CC(=O)N[C@@H](Cc2ccc(O)cc2)C(=O)N[C@@H](CCCC)C(=O)N[C@@H](CC(N)=O)C(=O)N[C@@H](CCCNC(=N)N)C(=O)N(C)[C@@H](CCCC)C(=O)N[C@@H](CCCCC)C(=O)N2CCC[C@H]2C(=O)N[C@@H](C(C)C)C(=O)N[C@@H](CC(=O)O)C(=O)N[C@H](C(=O)N[C@@H](CO)C(=O)O)CSCC(=O)N[C@@H](Cc2ccc3ccccc3c2)C(=O)N[C@@H](Cc2c[nH]c3ccccc23)C(=O)N[C@@H](CC(=O)O)C1=O [compound 1255] ({CH2CO}-[2Nal]WD[NHexGly]Y[Nle]NR[NMeNle][Ahp(2)]PVDCS-OH; thioether N-14)

IC50 (read-out: HC CBA mVISTA IC50): 34.8 nM
SMILES: CCCCCCN1CC(=O)N[C@@H](Cc2ccc(O)cc2)C(=O)N[C@@H](CCCC)C(=O)N[C@@H](CC(N)=O)C(=O)N[C@@H](CCCN)C(=O)N(C)[C@@H](CCCC)C(=O)N[C@@H](CCCCC)C(=O)N2CCC[C@H]2C(=O)N[C@@H](C(C)(C)C)C(=O)N[C@@H](CC(=O)O)C(=O)N[C@H](C(=O)NCC(N)=O)CSCC(=O)N[C@@H](Cc2ccccc2)C(=O)N[C@@H](Cc2c[nH]c3ccccc23)C(=O)N[C@@H](CC(=O)O)C1=O [Example 1394] ({CH2CO}-FWD[NHexGly]Y[Nle]N[Orn][NMeNle][Ahp(2)]P[Tle]DCG-NH2; thioether N-14)

IC50 (read-out: HC CBA mVISTA IC50): 25.2 nM
SMILES: CCCCCCN1CC(=O)N[C@@H](Cc2ccc(O)cc2)C(=O)N[C@@H](CCCC)C(=O)N[C@@H](CC(N)=O)C(=O)N[C@@H](CCCNC(N)=O)C(=O)N(C)[C@@H](CCCC)C(=O)N[C@@H](CCCCC)C(=O)N2CCC[C@H]2C(=O)N[C@@H](C(C)(C)C)C(=O)N[C@@H](CO)C(=O)N[C@H](C(=O)NCC(N)=O)CSCC(=O)N[C@@H](Cc2ccccc2)C(=O)N[C@@H](Cc2c[nH]c3ccccc23)C(=O)N[C@@H](CC(=O)O)C1=O [Example 1390] ({CH2CO}-FWD[NHexGly]Y[Nle]N[Cit][NMeNle][Ahp(2)]P[Tle]SCG-NH2; thioether N-14)

IC50 [1]: 8.3 nM
SMILES: CCCCCCN1CC(=O)N[C@@H](Cc2ccc(O)cc2)C(=O)N[C@@H](CCCC)C(=O)NCC(=O)N[C@@H](CCCNC(=N)N)C(=O)N[C@@H](CC(C)C)C(=O)N[C@@H](CCCCC)C(=O)N2CCC[C@H]2C(=O)N[C@@H](C(C)C)C(=O)N[C@@H](CC(=O)O)C(=O)N[C@H](C(=O)NCC(=O)O)CSCC(=O)N[C@@H](Cc2ccc3ccccc3c2)C(=O)N[C@@H](Cc2ccc(O)cc2)C(=O)N[C@@H](CC(=O)O)C1=O [Ex 1285] ({CH2CO}-[2Nal]YD[NHexGly]Y[Nle]GRL[Ahp(2)]PVDCG-OH; thioether N-14)

IC50 (293T cells expressing mouse VISTA, competition with biotinylated peptide (2 nM), read-out: HC CBA mVISTA IC50): 28.9 nM
SMILES: CCCCCCN1CC(=O)N[C@@H](Cc2ccc(O)cc2)C(=O)N[C@@H](CCCC)C(=O)N[C@@H](CC(=O)O)C(=O)N[C@@H](CCCNC(=N)N)C(=O)N[C@@H](CC(C)C)C(=O)N[C@@H](CCCCC)C(=O)N2CCC[C@H]2C(=O)N[C@@H](C(C)C)C(=O)N[C@@H](Cc2c[nH]c3ccccc23)C(=O)N[C@H](C(=O)NCC(=O)O)CSCC(=O)N[C@@H](Cc2ccccc2)C(=O)N[C@@H](Cc2ccc(O)cc2)C(=O)N[C@@H](CC(=O)O)C1=O [Example 1067] ({CH2CO}-FYD[NHexGly]Y[Nle]DRL[Ahp(2)]PVWCG-OH; thioether N-14)

The next lines start with the compound.

SMILES: CCCCCCN1CC(=O)N[C@@H](Cc2ccc(O)cc2)C(=O)N[C@@H](CC(C)C)C(=O)N[C@@H](CC(N)=O)C(=O)N[C@@H](CCCNC(=N)N)C(=O)N(C)[C@@H](CCCC)C(=O)N[C@@H](CCCCC)C(=O)N2CCC[C@H]2C(=O)N[C@@H](C(C)(C)C)C(=O)N[C@@H](CO)C(=O)N[C@H](C(=O)N[C@@H](CCN)C(=O)NCCOCCOCC(=O)N[C@@H](CC(=O)O)C(=O)NCCOCCOCC(=O)NCCCCCCCCCCC(=O)O)CSCC(=O)N[C@@H](Cc2ccccc2)C(=O)N[C@@H](Cc2ccc(O)cc2)C(=O)N[C@@H](CC(=O)O)C1=O [compound 2086] ({CH2CO}-FYD[NHexGly]YLNR[NMeNle][Ahp(2)]P[Tle]SC[Dab][AEEA]D[AEEA][Aun]-OH; thioether N-14)
IC50 (cell-based binding high-content assay, mVISTA, read-out: HC CBA miPrISTA IC50): 49.9 nM

SMILES: CCCCCCN1CC(=O)N[C@@H](Cc2ccc(O)cc2)C(=O)N[C@@H](C(C)C)C(=O)NCC(=O)N[C@@H](CCCNC(=N)N)C(=O)N[C@@H](CC(C)C)C(=O)N[C@@H](CCCCC)C(=O)N2CCC[C@H]2C(=O)N[C@@H](C(C)C)C(=O)N[C@@H](CC(=O)O)C(=O)N[C@H](C(=O)N[C@@H](CO)C(N)=O)CSCC(=O)N[C@@H](Cc2ccc3ccccc3c2)C(=O)N[C@@H](Cc2ccc(O)cc2)C(=O)N[C@@H](CC(=O)O)C1=O [Ex 1314] ({CH2CO}-[2Nal]YD[NHexGly]YVGRL[Ahp(2)]PVDCS-NH2; thioether N-14)
IC50 [1]: 1.4 nM

SMILES: CCCCCCN1CC(=O)N[C@@H](Cc2ccc(O)cc2)C(=O)N[C@@H](CCCC)C(=O)N[C@@H](CC(N)=O)C(=O)N[C@@H](CCCNC(=N)N)C(=O)N[C@@H](CC(C)C)C(=O)N[C@@H](CCCCC)C(=O)N2CCC[C@H]2C(=O)N[C@@H](C(C)(C)C)C(=O)N[C@@H](CC(=O)O)C(=O)N[C@H](C(=O)NCCOCCOCC(=O)N[C@@H](CCC(=O)NCCOCCOCC(=O)NCCCCCCCCCCC(=O)O)C(=O)O)CSCC(=O)N[C@@H](Cc2ccccc2)C(=O)N[C@@H](Cc2ccc(O)cc2)C(=O)N[C@@H](CC(=O)O)C1=O [compound 2233] ({CH2CO}-FYD[NHexGly]Y[Nle]NRL[Ahp(2)]P[Tle]DC[AEEA][γGlu][AEEA][Aun]-OH; thioether N-14)
IC50 (read-out: HC CBA mVISTA IC50): 29.1 nM

SMILES: CCCCCCN1CC(=O)N[C@@H](Cc2ccc(O)cc2)C(=O)N[C@@H](C(C)C)C(=O)NCC(=O)N[C@@H](CCCNC(=N)N)C(=O)N[C@@H](CC(C)C)C(=O)N[C@@H](CCCCC)C(=O)N2CCC[C@H]2C(=O)N[C@@H](C(C)C)C(=O)N[C@@H](CC(=O)O)C(=O)N[C@H](C(=O)NCCOCCOCC(=O)N[C@@H](CC(=O)O)C(=O)NCCOCCOCC(=O)NCCCCCCCCCCC(=O)O)CSCC(=O)N[C@@H](Cc2ccc3ccccc3c2)C(=O)N[C@@H](Cc2ccc(O)cc2)C(=O)N[C@@H](CC(=O)O)C1=O (stereo in doubt) [compound 2287]
IC50 [3]: 21.6 nM

SMILES: CCCCCCN1CC(=O)N[C@@H](Cc2ccc(O)cc2)C(=O)N[C@@H](CCCC)C(=O)N[C@@H](CC(N)=O)C(=O)N[C@@H](CCCNC(N)=O)C(=O)N(C)[C@@H](CCCC)C(=O)N[C@@H](CCCCC)C(=O)N2CCC[C@H]2C(=O)N[C@@H](C(C)C)C(=O)N[C@@H](CO)C(=O)N[C@H](C(=O)NCCOCCOCC(=O)N[C@@H](CC(=O)O)C(=O)NCCOCCOCC(=O)NCCCCCCCCCCC(=O)O)CSCC(=O)N[C@@H](Cc2ccc3ccccc3c2)C(=O)N[C@@H](Cc2ccc(O)cc2)C(=O)N[C@@H](CC(=O)O)C1=O [compound 2319] ({CH2CO}-[2Nal]YD[NHexGly]Y[Nle]N[Cit][NMeNle][Ahp(2)]PVSC[AEEA]D[AEEA][Aun]-OH; thioether N-14)
IC50 [3]: 25.1 nM

SMILES: CCCCCCN1CC(=O)N[C@@H](Cc2ccc(O)cc2)C(=O)N[C@@H](CC(C)C)C(=O)N[C@@H](CC(=O)O)C(=O)N[C@@H](CCCNC(=N)N)C(=O)N[C@@H](CC(C)C)C(=O)N[C@@H](CCCCC)C(=O)N2CCC[C@H]2C(=O)N[C@@H](C(C)C)C(=O)N[C@@H](CC(=O)O)C(=O)N[C@H](C(=O)NCC(=O)O)CSCC(=O)N[C@@H](Cc2ccc3ccccc3c2)C(=O)N[C@@H](Cc2ccc(O)cc2)C(=O)N[C@@H](CC(=O)O)C1=O [Ex 1278] ({CH2CO}-[2Nal]YD[NHexGly]YLDRL[Ahp(2)]PVDCG-OH; thioether N-14)
IC50 [1]: 24 nM

SMILES: CCCCCCN1CC(=O)N[C@@H](Cc2ccc(O)cc2)C(=O)N[C@@H](CCCC)C(=O)N[C@@H](CC(N)=O)C(=O)N[C@@H](CCCNC(=N)N)C(=O)N(C)[C@@H](CCCC)C(=O)N[C@@H](CCCCC)C(=O)N2CC[C@H]2C(=O)N[C@@H](C(C)C)C(=O)N[C@@H](CO)C(=O)N[C@H](C(=O)N[C@@H](CC(=O)NCCOCCOCC(=O)NCCCCCCCCCCC(=O)O)C(=O)O)CSCC(=O)N[C@@H](Cc2ccccc2)C(=O)N[C@@H](Cc2c[nH]c3ccccc23)C(=O)N[C@@H](CC(=O)O)C1=O [Example 2184] ({CH2CO}-FWD[NHexGly]Y[Nle]NR[NMeNle][Ahp(2)][Aze]VSC[βAsp][AEEA][Aun]-OH; thioether N-14)
IC50 (read-out: HC CBA mVISTA IC50): 23.1 nM
